US6150414A, “Compositions and methods for treating viral infections” (priority 1992, dated 2000)
Several values for one entry are separate records, joined by “and”; a condition that tells them apart may be missing. Equal entries are not always repeated.

Biological target: T1, Radiation Leukemia Virus reverse transcriptase (Radiation murine leukemia virus, UniProt P11227)
T1 construct: the reverse transcriptase of Radiation Leukemia Virus; endogenous in cells
Test: Reverse transcriptase assay of Radiation Leukemia Virus from B10.T(6R) cell supernatants (Example 3)
Assay type: biochemical
Conditions: Table V; for CPM: replicate
Description: Supernatants (10 ml/tube) from B10.T(6R) cells (Meruelo et al. J. Exp. Med. 147: 470-487, 1978) chronically infected with Radiation Leukemia Virus (RadLV) were obtained by centrifugation of cells in culture at 4° C., 3500 rpm for 15 minutes. The top 2/3 of the supernatant were removed and aliquots were incubated for 30 minutes on ice with the indicated amounts of hypericin or protohypericin. […] Thereafter, supernatants were centrifuged at 100,000×g using a TI70 rotor (Beckman Instruments) for 1 hour at 4° C. The pellet was […] and analyzed for reverse transcriptase activity as follows.
The reverse transcriptase assay was performed in a volume of 100 microliters containing the following components:
The reverse transcriptase assay provides a measure of the antiviral activity of the compounds tested by reference to the observed decrease in activity of this enzyme.
In Table V, "CPM" is "counts per minute", "Average" is the numerical average of CPM values within each group of animals.

Cc1cc(O)c2c(=O)c3c(O)cc(O)c4c5c(O)cc(O)c6c(=O)c7c(O)cc(C)c8c1c2c(c34)c(c78)c65 [hypericin, Hypericin]
Average CPM (0.05 micrograms): 3,067 CPM | Average percent inhibition (0.05 micrograms): 98.5% | CPM (0.05 micrograms): 2,882 CPM and 3,252 CPM | Average CPM (0.1 micrograms): 2,333 CPM | Average percent inhibition (0.1 micrograms): 98.9% | CPM (0.1 micrograms): 1,668 CPM and 2,998 CPM | Average CPM (0.5 micrograms): 3,428.5 CPM | Average percent inhibition (0.5 micrograms): 98.4% | CPM (0.5 micrograms): 3,190 CPM and 3,667 CPM | Average CPM (1 microgram): 4,097 CPM | Average percent inhibition (1 microgram): 98.0% | CPM (1 microgram): 4,504 CPM and 3,690 CPM | Average CPM (5 micrograms): 11,778 CPM | Average percent inhibition (5 micrograms): 94.4% | CPM (5 micrograms): 12,224 CPM and 11,332 CPM | Average CPM (10 micrograms): 9,007 CPM | Average percent inhibition (10 micrograms): 95.7% | CPM (10 micrograms): 8,912 CPM and 9,102 CPM | Average CPM (50 micrograms): 4,575 CPM | Average percent inhibition (50 micrograms): 97.8% | CPM (50 micrograms): 5,434 CPM and 3,716 CPM | Average CPM (100 micrograms): 1,830 CPM | Average percent inhibition (100 micrograms): 99.0% | CPM (100 micrograms): 1,502 CPM and 2,158 CPM
